Where two headings read alike, the source gives them in different places.
Assays:
drug users / humans = conditions: cited from earlier work
[1] = system: serotonergic terminals in the cortex and hippocampus; conditions: 25 mg/kg IP every 12 hours for 4 days; 2 weeks post-treatment; cited from earlier work
Sprague Dawley rats [2] = assay: Forced Swim Test (FST); assay type: in vivo, rat; conditions: for reduction in immobility (magnitude of the effect): single dose 30 min before testing
Description: The Forced Swim Test (FST) is a classic, and the most used preclinical behavioral assay to screen compounds with antidepressant-like activity and has high predictive and face validity (Porsolt et al. (1977) Nature 266:730; Borsini and Meli (1988) Psychopharmacology 94:147). The premise of the FST is that when rats are placed into a cylinder filled with water, they will initially try to escape, but over time will become immobile. This increased immobility reflects behavioral despair, modeling a depressive-like state.
Animals: Male Sprague Dawley rats (Charles River Laboratories) weighing 180-200 g on arrival, were used for this study which took place at Melior Discovery (Exton, PA). Rats acclimated to their home cages for at least one week before testing, were maintained in a controlled environment on a 12 h light/dark cycle, with no more than 2 rats per cage. Animals received ad libitum access to food and water and were assigned randomly to treatment groups. Animal use and procedures were in accordance with established protocols approved by the IACUC committee, Melior Standard Operation Procedures (SOP), and Transcend Therapeutics.
Forced Swim Test (FST): In the FST trial, rats were be placed in a circular plexiglass container filled with water, with no means of escape. Water temperature was maintained at 22-25° C. and changed for every animal. After an acclimation period, rats were timed for inactivity (failure to struggle), activity, swim time and climbing time. Day 1 consisted of a 15 min acclimation trial, and Day 2 (24 h later) consisted of the 5 min test. A time sampling procedure was employed where animals were observed every 5 sec and scored for immobility, swimming, or climbing. Fluoxetine (10 mg/kg, IP, Sigma Aldrich) or 0.9% sterile saline vehicle (vehicle 3× group) were administered 23.5, 5, and 1 h before testing in the FST. […] The experimenter was blinded to treatment.
Statistical Analysis: Data for each parameter of the test (immobility, swimming, or climbing) is expressed as the mean±SEM. Differences between groups were determined by one-way ANOVA and post-hoc Tukey's test with a p-value of less than 0.05 indicating statistically significant differences.
Forced Swim Test: In the FST trial, rats were be placed in a circular plexiglass container filled with water, with no means of escape. Water temperature was maintained at 22-25° C. and changed for every animal. After an acclimation period, rats were timed for inactivity (failure to struggle), activity, swim time and climbing time. Day 1 consisted of a 15 min acclimation trial, and Day 2 (24 h later) consisted of the 5 min test. A time sampling procedure was employed where animals were observed every 5 sec and scored for immobility, swimming, or climbing. Fluoxetine (10 mg/kg, IP, Sigma Aldrich) or 0.9% sterile saline vehicle (vehicle 3× group) were administered 23.5, 5, and 1 h before testing in the FST. 2C-B (2.5, 10, or 20 mg/kg, IP, Cayman Chemical) or 0.9% saline vehicle (vehicle 1× group) were administered 30 min prior to FST testing. The experimenter was blinded to treatment.
Drug Treatment: Fluoxetine (10 mg/kg, IP, Sigma Aldrich) or 0.9% sterile saline vehicle were administered 23.5, 5, and 1 h before testing in the FST. […] Control animals received fluoxetine alone, methylone alone, or saline vehicle.
Forced Swim Test: In the FST trial, rats were be placed in a circular plexiglass container filled with water, with no means of escape. Water temperature was maintained at 22-25° C. and changed for every animal. After an acclimation period, rats were timed for inactivity (failure to struggle), activity, swim time and climbing time. The experimenter and scorer were blind to treatment group. Day 1 consisted of a 15 min acclimation trial, and Day 2 (24 h later) consisted of the 5 min test. A time sampling procedure was employed where animals were observed every 5 sec and scored for immobility, swimming, or climbing. […]

mice [3] = assay: Fear extinction paradigm, mouse model of PTSD; assay type: in vivo; conditions: MBDB 5 mg/kg IP, day 2
Description: (FIG. 9A) Schematic of experimental design. A single CS-US (tone-shock) pairing on day 1 was followed by 6 CS presentations in a novel context (context B). […] On day 3, the time spent freezing to the CS was quantified. […] (FIG. 9C) No locomotor changes were observed on day 3 (t(26)=1.073, p>0.05). Data are mean +/− SEM.
FIGS. 10A-10B: MBDB improves fear extinction in a mouse model of PTSD. A single CS-US (tone-shock) pairing on day 1 was followed by 6 conditioned stimulus (CS) presentations in a novel context (context B). MBDB or saline vehicle was injected 30 min prior to extinction training on day 2. The time spent freezing to the CS was quantified on […]. […] Data are mean +/− SEM. N=10 for MBDB group (5 mg/kg, IP) and N=16 for saline control group. **p<0.01 vs. vehicle control group.
Effective PTSD treatments facilitate the disassociation between a traumatic memory and the patient's fear response, making cues for the traumatic memory evoke less of a fear response. This is modeled in the mouse fear extinction paradigm (see FIG. 9A) which takes place over 3 days. On day 1 (fear conditioning), mice are trained to acquire a “traumatic memory,” namely associating the conditioned stimulus (CS, tone) to the unconditioned stimulus (US, foot shock). On day 2 (extinction training), they are trained to forget the traumatic memory association by presenting the CS 6 times (with no US) in a novel environment. On day 3 (extinction recall), the mice are “asked” if that tone (CS) still elicits a fearful response, as measured by the time spent freezing when the tone is presented. Less time freezing means better extinction recall. Drugs that improve extinction recall reduce freezing time on day 3, and, therefore, show potential as a PTSD treatment.

Sprague Dawley rats [4] = conditions: cited from earlier work
[5] = target: T1, Human serotonin 5HT2B receptor (Homo sapiens, UniProt P41595); assay: Competitive radioligand binding to 5HT2B receptor membrane preparations; conditions: ratio of Ki values
T1 construct: host or cells: 5HT2B receptor expressing membranes
T1 sequence (P41595 whole entry): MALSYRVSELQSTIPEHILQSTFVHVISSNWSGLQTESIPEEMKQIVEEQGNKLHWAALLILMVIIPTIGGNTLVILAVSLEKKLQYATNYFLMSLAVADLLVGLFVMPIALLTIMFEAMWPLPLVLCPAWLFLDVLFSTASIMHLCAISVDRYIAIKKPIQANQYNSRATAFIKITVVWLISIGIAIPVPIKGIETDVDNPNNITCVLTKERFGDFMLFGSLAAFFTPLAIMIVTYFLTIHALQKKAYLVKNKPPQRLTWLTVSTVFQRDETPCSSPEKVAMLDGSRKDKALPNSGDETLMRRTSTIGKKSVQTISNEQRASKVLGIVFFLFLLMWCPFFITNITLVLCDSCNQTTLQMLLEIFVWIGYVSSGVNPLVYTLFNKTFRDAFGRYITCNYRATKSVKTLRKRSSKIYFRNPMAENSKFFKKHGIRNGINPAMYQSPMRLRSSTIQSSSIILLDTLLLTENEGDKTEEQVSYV
Protocol: Human serotonin 5HT2B receptor membrane preparations were divided into aliquots. On the day of the assay, membranes were diluted at 1:200 in incubation buffer. […] To each well was added 150 μL membrane preparation, 50 μL test compound, non-specific compound, or buffer alone, as well as 50 μL radioligand. The plate was incubated at 35° C. for 90 minutes with gentle agitation. […] For each concentration of drug, non-specific binding was subtracted from total binding to give specific binding. […] Ki was subsequently calculated using the ChengPrusoff equation.

[6] = depending on the animal model used and dosing conditions; cited from earlier work
mice [7] = conditions: MDMA 7.5 mg/kg 30 minutes prior to extinction training (Young 2015); cited from earlier work
[8] = 13 of 77 deaths, meta-analysis; cited from earlier work
[9] = target: T1, Human serotonin 5HT2B receptor; conditions: literature values; read-out: reported Ki; cited from earlier work

CCC(Cc1ccc2c(c1)OCO2)NC (racemic) [MBDB, N-methyl-1-(1,3-benzodioxol-5-yl)-2-aminobutane]
adverse effects (drug users / humans; self-administered MBDB under supervision, 100 to 300 mg): no serious adverse effects
serotonergic terminals destroyed in the cortex and hippocampus [1]: 55-60%
climbing (Sprague Dawley rats [2]; MBDB IP 30 min before testing): significantly reduced only at the highest dose
swimming (Sprague Dawley rats [2]; MBDB IP 30 min before testing): robustly increased at all doses tested
immobility (Sprague Dawley rats [2]; MBDB IP 30 min before testing, all doses tested (15-30 mg/kg)): significantly reduced immobility
extinction acquisition on the first trial of extinction training (mice [3]): improved extinction acquisition
locomotor activity (mice [3]): small, but significant increase

CNCCC(Oc1ccc(C(F)(F)F)cc1)c1ccccc1 (centres unmarked) [fluoxetine, reference compound]
swimming behavior (Sprague Dawley rats [2]; Example 8): significantly increased swimming behavior
reduction in immobility (Sprague Dawley rats [2]; fluoxetine 10 mg/kg IP at 23.5, 5 and 1 h before testing (Examples 6 and 7)): 56%
reduced immobility compared to vehicle (Sprague Dawley rats [2]; fluoxetine alone, 10 mg/kg IP x3 (Example 8)): 60%

CCN(CC)C(=O)[C@@H]1C=C2c3cccc4[nH]cc(c34)C[C@H]2N(C)C1 [LSD, lysergic acid-N,N-diethylamide]
reduction in immobility in the FST, previous reports (Sprague Dawley rats [4]; literature (Hibicke 2020; Yang 2013; Tizabi 2012)): 38%

COc1cc(CCN)c(OC)cc1Br [2C-B, 4-Bromo-2,5-dimethoxyphenethylamine]
adverse effects (drug users / humans; self-administered 2C-B, 10 to 20 mg, experienced drug users): no serious adverse effects
climbing (Sprague Dawley rats [2]; 2C-B 2.5, 10, 20 mg/kg IP): significantly decreased only in the high-dose group
reduction in immobility (magnitude of the effect) (Sprague Dawley rats [2]; 2C-B high-dose (20 mg/kg IP)): 53%
reduction in immobility (magnitude of the effect) (Sprague Dawley rats [2]; 2C-B mid-dose (10 mg/kg IP)): 50%
swimming (Sprague Dawley rats [2]; single dose of 2C-B 30 minutes before testing): significant increase in swimming

CNC(C)Cc1ccc2c(c1)OCO2 (centres unmarked) [MDMA, 3,4-Methylenedioxymethamphetamine]
greater affinity for the 5HT2B receptor compared with methylone [5]: 7.5 times
half-life [6]: 5 to 7 h
reduced freezing compared to saline injected controls (extinction recall) (mice [7]): 35%
reduction in immobility, reported (Sprague Dawley rats [4]; MDMA 5 mg/kg, Flinders Sensitive Line rats (Majumder 2011)): 45%
reduction in immobility, reported (Sprague Dawley rats [4]; MDMA 5 mg/kg, Sprague Dawley rats (Majumder 2011)): 45%
reduction in immobility, reported (Sprague Dawley rats [4]; MDMA 10 mg/kg, Flinders Sensitive Line rats (Majumder 2011)): 93%
reduction in immobility, reported (Sprague Dawley rats [4]; MDMA 10 mg/kg, Sprague Dawley rats (Majumder 2011)): 78%
blood concentration in deaths attributable to MDMA alone [8]: 478 to 53900 ng/mL

CC(N)Cc1ccc2c(c1)OCO2 (centres unmarked) [MDA]
greater affinity for the 5HT2B receptor compared with methylone [5]: 37 times
Ki [9]: 0.1 µM

Reference: patent US20250221957A1, “PS[…] AND THEIR USE FOR TREATING […] AND NE[…] DISORDERS” (Transcend Therapeutics, Inc., priority 2021, published 2025)
